Test results reported in patent US9688689B2, “Compounds and compositions for inducing chondrogenesis” (Novartis AG, priority 2014, dated 2017).

Tested on: Primary articular chondrocytes from normal bovine knees
Test: NO Release Assay in Bovine Chondrocytes (inhibition of cytokine induced NO release, Greiss reagent)
Format: cell-based
Conditions: Bos taurus, Chondrocyte; 20 ng/ml TNFα and 10 ng/ml human oncostatin M, 48 hours; read-out: NO Inh. IC50
Experimental: The compounds of the present invention were evaluated in two functional assays to assess their chondrogenesis activities (Type II Collagen Expression) and chondrocyte protective activities (NO release assay).
The assay was described in Johnson, K., et al., (2012) Science 336, 717-721. Chondrocytes release NO during OA pathogenesis. This assay measures the inhibition of nitric oxide release by the treated compound (an indicator of chondro-protection) Primary articular chondrocytes from normal bovine knees (Animal Technologies, Tyler, Tex.) were isolated after dissection and collagenase digestion (Worthington Biochemical) of the tibial plateau and femoral condyle articular cartilage. The cells were initially plated at 80-90% confluency after isolation. Primary chondrocytes were cultured in high-glucose Dulbecco's modified Eagle's medium (DMEM) supplemented with 10% fetal bovine serum (FBS), 1% L-glutamine, 100 units/ml of penicillin, and 50 μg/ml of streptomycin (Life Technologies, Carlsbad, Calif.) and maintained at 37° C. in the presence of 5% CO2 for 7 days prior to initiation of each experiment. During the 7-day culture period, the cells adhered and established a chondrocyte-like appearance that was maintained throughout the experimental period. Functional studies on chondrocytes were performed in high-glucose DMEM with no FBS unless indicated otherwise.
After one week of culture, 8500 cells were plated per well in Greiner 384 well white clear bottom plates in growth media. Following 24 hours of culture, the media was removed and replaced with serum free DMEM containing 20 ng/ml TNFα and 10 ng/ml human oncostatin M (inflammatory mediators). […] 20 μl of the supernatant was mixed with 20 μl of the Greiss reagent (Promega # G2930) and quantitated at 540 nm. The Greiss reagent part A (1% Sulfanilamide in 5% phosphoric acid) was mixed at a 1:1 ration with Greiss reagent part B (0.1% N-1-napthylethylenediamine dihydrochloride in water) immediately prior to added to the culture supernatant.

O=C(Nc1ccc(Cl)c(Cl)c1)C1=C(c2cccc(C(F)(F)F)n2)[C@@H]2CC[C@H]1O2 [Compound 136]
IC50: 0.14 µM

Nc1cc([C@@H]2[C@@H](C(=O)Nc3ccc(Cl)c(Cl)c3)[C@H]3CC[C@@H]2O3)ccn1 [Compound 5]
IC50: 16 µM

O=C(Nc1ccc(-c2ccccc2F)c(F)c1)[C@H]1[C@H](c2ccncc2)[C@@H]2CC[C@H]1O2 [Compound 52]
IC50: > 33 µM

Cc1cc(NC(=O)C2=C(c3ccncc3)[C@@H]3CCC2O3)nn1-c1ccccc1 [Compound 61]
IC50: > 33 µM

Cc1cc(C2=C(C(=O)Nc3ccc(-c4ccccc4F)c(F)c3)C3CC[C@@H]2O3)ccn1 [Compound 32]
IC50: > 27 µM

Nc1cc([C@H]2[C@H](C(=O)Nc3ccc(Cl)c(Cl)c3)[C@@H]3CC[C@H]2O3)ccn1 [Compound 10]
IC50: 22 µM

O=C(Nc1ccc(Cl)c(Cl)c1)[C@H]1[C@H](c2ccncc2)[C@H]2CC[C@@H]1O2 (single isomer, unassigned) [Compound 103]
IC50: > 29 µM

O=C(Nc1ccc(Cl)c(Cl)c1)[C@H]1C2CC[C@H](O2)[C@H]1c1cnccn1 [Compound 140]
IC50: > 33 µM

O=C(Nc1ccc(Cl)c(Cl)c1)[C@H]1[C@@H](c2ccncc2)[C@@H]2CC[C@H]1O2 [Compound 11]
IC50: > 33 µM

CCOC(=O)c1ccc(NC(=O)[C@H]2[C@@H](c3nc(-c4ccc(Cl)cc4)no3)[C@@H]3CC[C@H]2O3)cc1 [Compound 17]
IC50: > 11.1 µM

CCOC(=O)c1ccc(NC(=O)C2=C(c3cccc(C(F)(F)F)n3)[C@@H]3CCC2O3)cc1 [Compound 129]
IC50: > 33 µM

Cc1ccnc([C@H]2[C@@H](C(=O)Nc3ccc(-c4ccccc4F)c(F)c3)[C@H]3CC[C@@H]2O3)c1 [Compound 166]
IC50: > 33 µM

O=C(Nc1ccc(Cl)c(Cl)c1)[C@@H]1[C@@H](c2ccncc2)[C@@H]2CC[C@H]1O2 (single isomer, unassigned) [Compound 71]
IC50: > 29 µM

CN(C)c1ncc([C@H]2[C@@H](C(=O)Nc3ccc(-c4ccccc4F)c(F)c3)[C@H]3CC[C@@H]2O3)cn1 [Compound 78]
IC50: 0.24 µM

O=C(Nc1ccc(-c2ccccc2F)c(F)c1)C1=C(c2cc(Cl)nc(Cl)c2)[C@@H]2CC[C@H]1O2 [Compound 116]
IC50: 0.12 µM

Nc1cc([C@@H]2[C@@H](C(=O)Nc3ccc(Cl)c(Cl)c3)[C@H]3CC[C@@H]2O3)ccn1 (single isomer, unassigned) [Compound 107]
IC50: > 33 µM

O=C(Nc1ccc(-c2ccccc2)c(Cl)c1)[C@H]1[C@H](c2ccncc2)[C@@H]2CC[C@H]1O2 [Compound 39]
IC50: > 33 µM
